Results reported in US6525062B2, “Method of treating pain using nalbuphine and opioid antagonists” (The Regents of the University of California, priority 2000, dated 2003).
“Also recorded” adds a separate entry of the source.

How the values were obtained:
[1] = system: postoperative pain after removal of impacted third molars; conditions: co-administration of 0.4 mg naloxone, human patients, cited from earlier work
[2] = system: postoperative pain after removal of third molar teeth; conditions: nalbuphine alone, data as reported in previous study; cited from earlier work
[3] = system: postoperative pain after removal of impacted wisdom teeth; conditions: cited from earlier work
[4] = system: postoperative pain after removal of third molar teeth
Excerpt: This is a subjective measurement of pain, in which persons participating in the study are requested to indicate a level of pain at a certain time on a 10-cm line. The patient makes an indication on the line at a value from 0 to 10 indicating the level of pain felt at that time (where 0 indicates no pain and 10 indicates the worst pain imaginable to the patient). […] Tabulations were then made indicating increase or decrease in the pain level with time, with a negative value indicating a decrease in pain experienced by the patient and a positive value, an increase in such pain.
In this clinical trial, 88 patients underwent standardized surgery by the same oral surgeon for removal of third molar (“wisdom”) teeth, including at least one bony impacted mandibular third molar. Prior to surgery, patients received intravenous diazepam, nitrous oxide, and a local anesthetic (mepivacaine without vasoconstrictor to obtain a nerve block of short duration). […]
Baseline pain intensity was defined as the last VAS pain rating before administration of the test drug or drugs. VAS pain ratings were recorded at 20-minute intervals beginning ten minutes after administration of the test drug. The duration of the experiment, measured from the time of administration of the test drug, was three hours. […]

Question: Which “effect of co-administered naloxone on analgesia produced by morphine” value ([1]; 8 mg morphine) does the source give for `CN1CC[C@]23c4c5ccc(O)c4O[C@H]2[C@@H](O)C=C[C@H]3[C@H]1C5` [morphine] here?
Answer: attenuated

Question: With `Oc1ccc2c3c1O[C@H]1[C@@H](O)CC[C@@]4(O)[C@@H](C2)N(CC2CCC2)CC[C@]314` [nalbuphine] as the molecule, how does the “gender x treatment interaction (ANOVA)” value [2] read?
Answer: significant gender x treatment interaction

Question: And the “effect on postoperative pain” value ([3]; nalbuphine 5 mg alone, men)?
Answer: unexpectedly increased postoperative pain; also recorded: produced a marked increase in pain in men; also recorded: pain-enhancing effect; also recorded: had produced an increase in pain

Question: And the “pain modulation effect versus placebo” value ([3]; nalbuphine 5 mg alone, women)?
Answer: did not produce pain modulation effects in women that were any better than those achieved by administration of a dose of placebo

Question: What about the “sex difference of analgesic effects” value ([3]; women versus men) of the same molecule?
Answer: greater and more consistent in women than in men

Question: And the “pain relief (VAS), initial period” value ([4]; women, nalbuphine 2.5 mg alone vs naloxone 0.4 mg vs combination, nalbuphine-alone data from previous study)?
Answer: slightly better pain relief in women than either naloxone at 0.4 mg or the combination

Question: Which “gender differences in response (ANOVA)” value ([4]; Example 1, naloxone 0.4 mg alone or nalbuphine 5 mg + naloxone 0.4 mg, intravenous) does the source give for `C=CCN1CC[C@]23c4c5ccc(O)c4O[C@H]2C(=O)CC[C@@]3(O)[C@H]1C5` [naloxone] here?
Answer: lack of gender differences in response

Question: Which “effect of co-administered naloxone on analgesia produced by pentazocine” value ([1]; 60 mg pentazocine) does the source give for `CC(C)=CCN1CCC2(C)c3cc(O)ccc3CC1C2C` (centres unmarked) [pentazocine] here?
Answer: potentiated
